Experimental data as given in patent publication US20250034170A1, “SMALL MOLECULE MODULATORS OF GLUCOCEREBROSIDASE ACTIVITY AND USES THEREOF” (Vanqua Bio, Inc., priority 2021, published 2025).

target: T1, GCase (Homo sapiens, UniProt P04062); assay: activation of GCase in a live cell PFB assay in HELA cells; format: cell-based; details: activation of GCase, EC50 ranges
T1 construct: endogenous in cells; host or cells: HeLa cells
T1 sequence (P04062 40-536): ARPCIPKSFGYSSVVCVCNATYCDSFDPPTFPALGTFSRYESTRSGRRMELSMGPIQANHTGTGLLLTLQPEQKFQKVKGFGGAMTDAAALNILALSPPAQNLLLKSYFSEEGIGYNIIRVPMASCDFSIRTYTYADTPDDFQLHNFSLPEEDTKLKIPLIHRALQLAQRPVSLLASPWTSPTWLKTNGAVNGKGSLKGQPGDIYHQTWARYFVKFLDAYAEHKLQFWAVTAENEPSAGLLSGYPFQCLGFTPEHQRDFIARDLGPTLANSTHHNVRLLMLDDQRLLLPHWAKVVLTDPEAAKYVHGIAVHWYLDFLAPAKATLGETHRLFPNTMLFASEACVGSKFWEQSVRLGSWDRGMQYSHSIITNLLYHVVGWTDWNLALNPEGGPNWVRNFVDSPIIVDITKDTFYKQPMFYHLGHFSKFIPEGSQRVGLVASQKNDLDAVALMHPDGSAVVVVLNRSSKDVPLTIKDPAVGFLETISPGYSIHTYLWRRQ
Description: Exemplary compounds were evaluated for activation of GCase in a live cell PFB assay in HELA cells (essentially as described in Ysselstein et al., “LRRK2 kinase activity regulates lysosomal glucocerebrosidase in neurons derived from Parkinson's disease patients” Nature Communications (2019) 10:5570). […] EC50 ranges: A: <10 μM; B: >10-50 μM; C: >50-100 μM; D: >100 μM.

Structure (SMILES)	EC50
Cc1nc(N2CC3(CCN(c4cncc(-c5ccnn5CC(F)F)n4)C3)C2)cc(C(F)(F)F)n1 [Cmpd 1119]	10 to 50 µM
Cc1nc(N2CC3(CCN(c4cncc(-c5ccn(CC(F)(F)F)n5)n4)C3)C2)cc(C(F)(F)F)n1 [Cmpd 1120]	> 100 µM
Cc1nc(N2CC[C@@]3(CCN(c4cnc5c(C)nn(C6COC6)c5n4)C3)C2)cc(C(F)(F)F)n1 [Cmpd 1123]	10 to 50 µM
Cc1nc(N2CC3(CCN(c4cncc(-c5cnn(CC(F)F)c5)n4)C3)C2)cc(C(F)(F)F)n1 [Cmpd 1124]	50 to 100 µM
CC(C)Cn1ncc2ncc(N3CCC4(CN(c5ccnc(C(F)(F)F)c5)C4)C3)nc21 [Cmpd 1126]	< 10 µM
Cc1nc(N2CC3(CCN(c4ncc5c(C)nn(CC(C)(F)F)c5n4)C3)C2)cc(C(F)(F)F)n1 [Cmpd 1127]	< 10 µM
Cc1cc(N2CC3(CCN(c4cnc5c(C)nn(CC(C)(F)F)c5n4)C3)C2)nc(C(F)(F)F)n1 [Cmpd 1129]	< 10 µM
Cc1cc(N2CC3(CCN(c4ncc5c(C)nn(CC(C)(F)F)c5n4)C3)C2)nc(C(F)(F)F)n1 [Cmpd 1130]	< 10 µM
Cc1nc(N2CC3(CCN(c4nccc(-c5nncs5)n4)C3)C2)cc(C(F)(F)F)n1 [Cmpd 1131]	> 100 µM
FC(F)Cn1ncc2ncc(N3CC[C@@]4(CCN(c5cnc(C(F)(F)F)nc5)C4)C3)nc21 [Cmpd 1132]	10 to 50 µM
FC(F)Cn1ncc2ncc(N3CC[C@]4(CCN(c5cnc(C(F)(F)F)nc5)C4)C3)nc21 [Cmpd 1133]	10 to 50 µM
Cc1cc(N2CC3(CCN(c4cnc5cnn(CC(C)(F)F)c5n4)C3)C2)nc(C(F)(F)F)n1 [Cmpd 1134]	> 100 µM
Cc1nc(N2CC3(CCN(c4ncc5cnn(CC(C)(F)F)c5n4)C3)C2)cc(C(F)(F)F)n1 [Cmpd 1135]	10 to 50 µM
CCn1nc(C(F)(F)F)c2ncc(N3CCC4(CN(c5cc(C(F)(F)F)nc(C)n5)C4)C3)nc21 [Cmpd 1136]	< 10 µM
Cc1nc(N2CC3(CCN(c4cnc5cnn(CC(F)F)c5n4)C3)C2)c(F)c(C(F)(F)F)n1 [Cmpd 1137]	50 to 100 µM
Cc1nc(C(F)(F)F)nc(N2CC3(CCN(c4cnc5cnn(CC(F)F)c5n4)C3)C2)c1F [Cmpd 1138]	10 to 50 µM

Structure (SMILES)	EC50
Cc1nc(C(F)F)cc(N2CC3(CCN(c4cnc5cnn(CC(F)F)c5n4)C3)C2)n1 [Cmpd 1139]	< 10 µM
Cc1cc(N2CC3(CCN(c4cnc5cnn(CC(F)F)c5n4)C3)C2)nc(C(F)F)n1 [Cmpd 1140]	< 10 µM
Cn1c(=O)n(CC(F)F)c2nc(N3CCC4(CN(c5ccnc(C(F)(F)F)c5)C4)C3)ncc21 [Cmpd 1142]	< 10 µM
Cc1cc(N2CC3(CCN(c4cnc5c(C)nn(C6COC6)c5n4)C3)C2)nc(C(F)(F)F)n1 [Cmpd 1143]	< 10 µM
Cc1nc(N2CC3(CCN(c4cnc5cnn([C@@H]6CCOC6)c5n4)C3)C2)cc(C(F)(F)F)n1 [Cmpd 1144]	< 10 µM
Cc1nc(N2CC3(CCN(c4cnc5cnn([C@H]6CCOC6)c5n4)C3)C2)cc(C(F)(F)F)n1 [Cmpd 1145]	10 to 50 µM
Cc1cc(N2CC3(CCN(c4cnc5cnn([C@H]6CCOC6)c5n4)C3)C2)nc(C(F)(F)F)n1 [Cmpd 1146]	10 to 50 µM
Cc1cc(N2CC3(CCN(c4cnc5cnn([C@@H]6CCOC6)c5n4)C3)C2)nc(C(F)(F)F)n1 [Cmpd 1147]	< 10 µM
FC(F)Cn1ncc2ncc(N3CCC4(CC3)CN(c3cc(C(F)(F)F)ccn3)C4)nc21 [Compound 1, 7-[1-(2,2-difluoroethyl)-1H-pyrazolo[3,4-b]pyrazin-6-yl]-2-[4-(trifluoromethyl)pyridin-2-yl]-2,7-diazaspiro[3.5]nonane]	< 10 µM
FC(F)Cn1ncc2ncc(N3CCC4(CCN(c5cc(C(F)(F)F)ccn5)C4)CC3)nc21 [Compound 6, 8-[1-(2,2-difluoroethyl)-1H-pyrazolo[3,4-b]pyrazin-6-yl]-2-[4-(trifluoromethyl)pyridin-2-yl]-2,8-diazaspiro[4.5]decane]	< 10 µM
FC(F)Cn1ncc2ncc(N3CCC4(CCCN(c5cccnc5C(F)(F)F)C4)C3)nc21 (stereo not shown) [Compound 7, 2-[1-(2,2-difluoroethyl)-1H-pyrazolo[3,4-b]pyrazin-6-yl]-7-[2-(trifluoromethyl)pyridin-3-yl]-2,7-diazaspiro[4.5]decane]	< 10 µM
FC(F)Cn1ncc2ncc(N3CC4(CCCN(c5ccnc(C(F)(F)F)c5)C4)C3)nc21 [Compound 8, 2-[1-(2,2-difluoroethyl)-1H-pyrazolo[3,4-b]pyrazin-6-yl]-6-[2-(trifluoromethyl)pyridin-4-yl]-2,6-diazaspiro[3.5]nonane]	< 10 µM
FC(F)Cn1ncc2ncc(N3CCCC4(CC(Oc5cnccc5C(F)(F)F)C4)C3)nc21 (stereo not shown) [Compound 10, 6-[1-(2,2-difluoroethyl)-1H-pyrazolo[3,4-b]pyrazin-6-yl]-2-{[4-(trifluoromethyl)pyridin-3-yl]oxy}-6-azaspiro[3.5]nonane]	< 10 µM
FC(F)(F)Cn1ncc2ncc(N3CCCC4(CC(Oc5cnccc5C(F)(F)F)C4)C3)nc21 (stereo not shown) [Compound 11, 6-[1-(2,2,2-trifluoroethyl)-1H-pyrazolo[3,4-b]pyrazin-6-yl]-2-{[4-(trifluoromethyl)pyridin-3-yl]oxy}-6-azaspiro[3.5]nonane]	< 10 µM
FC(F)Cn1ncc2ncc(N3CCCC4(CC(Oc5ccnc(C(F)(F)F)c5)C4)C3)nc21 (stereo not shown) [Compound 13, 6-[1-(2,2-difluoroethyl)-1H-pyrazolo[3,4-b]pyrazin-6-yl]-2-{[2-(trifluoromethyl)pyridin-4-yl]oxy}-6-azaspiro[3.5]nonane]	10 to 50 µM

Further lines, results first:

EC50	Structure (SMILES)
< 10 µM	CCn1c(N2CCC3(CN(c4cc(C(F)(F)F)nc(C)n4)C3)C2)nc2c(cnn2CC(F)(F)F)c1=O [Cmpd 1114]
10 to 50 µM	CCn1c(N2CCC3(CN(c4cc(C(F)(F)F)nc(C)n4)C3)C2)nc2c(cnn2C2COC2)c1=O [Cmpd 1115]
10 to 50 µM	CC(F)(F)Cn1ncc2ncc(N3CCC4(CN(c5ccnc(C(F)(F)F)c5)C4)C3)nc21 [Cmpd 1116]
> 100 µM	Cc1nc(N2CC3(CCN(c4cnc5cnn(CC(C)(F)F)c5n4)C3)C2)cc(C(F)(F)F)n1 [Cmpd 1117]
> 100 µM	Cc1nc(N2CC3(CCN(c4cncc(-c5ccn(CC(F)F)n5)n4)C3)C2)cc(C(F)(F)F)n1 [Cmpd 1118]
> 100 µM	Cc1nc(N2CC3(CCN(c4cncc(-c5ccnn5CC(F)(F)F)n4)C3)C2)cc(C(F)(F)F)n1 [Cmpd 1121]
10 to 50 µM	Cc1nc(N2CC[C@]3(CCN(c4cnc5c(C)nn(C6COC6)c5n4)C3)C2)cc(C(F)(F)F)n1 [Cmpd 1122]
10 to 50 µM	CC(C)(C)Cn1ncc2ncc(N3CCC4(CN(c5ccnc(C(F)(F)F)c5)C4)C3)nc21 [Cmpd 1125]
10 to 50 µM	Cc1nc(N2CC3(CCN(c4cnc5c(C)nn(CC(C)(F)F)c5n4)C3)C2)cc(C(F)(F)F)n1 [Cmpd 1128]
< 10 µM	Cn1c(=O)n(C2COC2)c2nc(N3CCC4(CN(c5ccnc(C(F)(F)F)c5)C4)C3)ncc21 [Cmpd 1141]
< 10 µM	FC(F)(F)c1ccncc1OC1CC2(CCCN(c3cncc(-c4nncs4)n3)C2)C1 (stereo not shown) [Compound 2, 6-[6-(1,3,4-thiadiazol-2-yl)pyrazin-2-yl]-2-{[4-(trifluoromethyl)pyridin-3-yl]oxy}-6-azaspiro[3.5]nonane]
< 10 µM	FC(F)Cn1ncc2ncc(N3CC4(CCN(c5cc(C(F)(F)F)ccn5)CC4)C3)nc21 [Compound 3, 2-[1-(2,2-difluoroethyl)-1H-pyrazolo[3,4-b]pyrazin-6-yl]-7-[4-(trifluoromethyl)pyridin-2-yl]-2,7-diazaspiro[3.5]nonane]
< 10 µM	FC(F)Cn1ncc2ncc(N3CCCC4(CC(Oc5cccnc5C(F)(F)F)C4)C3)nc21 (stereo not shown) [Compound 4, 6-[1-(2,2-Difluoroethyl)-1H-pyrazolo[3,4-b]pyrazin-6-yl]-2-{[2-(trifluoromethyl)pyridin-3-yl]oxy}-6-azaspiro[3.5]nonane]
< 10 µM	FC(F)Cn1ncc2ncc(N3CCCC4(CCN(c5cccnc5C(F)(F)F)C4)C3)nc21 (stereo not shown) [Compound 5, 7-[1-(2,2-difluoroethyl)-1H-pyrazolo[3,4-b]pyrazin-6-yl]-2-[2-(trifluoromethyl)pyridin-3-yl]-2,7-diazaspiro[4.5]decane]
< 10 µM	FC(F)Cn1ncc2ncc(N3CC4(CCCN(c5cccnc5C(F)(F)F)C4)C3)nc21 [Compound 9, 2-[1-(2,2-difluoroethyl)-1H-pyrazolo[3,4-b]pyrazin-6-yl]-6-[2-(trifluoromethyl)pyridin-3-yl]-2,6-diazaspiro[3.5]nonane]
10 to 50 µM	FC(F)Cn1ncc2ncc(N3CCCC4(CN(c5ccnc(C(F)(F)F)c5)C4)C3)nc21 [Compound 12, 6-[1-(2,2-difluoroethyl)-1H-pyrazolo[3,4-b]pyrazin-6-yl]-2-[2-(trifluoromethyl)pyridin-4-yl]-2,6-diazaspiro[3.5]nonane]
10 to 50 µM	FC(F)Cn1ncc2ncc(N3CC4(CCCN(c5ccc(C(F)(F)F)cn5)C4)C3)nc21 [Compound 14, 2-[1-(2,2-difluoroethyl)-1H-pyrazolo[3,4-b]pyrazin-6-yl]-6-[5-(trifluoromethyl)pyridin-2-yl]-2,6-diazaspiro[3.5]nonane]
10 to 50 µM	FC(F)Cn1ncc2ncc(N3CCCC4(CN(c5cncc(C(F)(F)F)c5)C4)C3)nc21 [Compound 15, 6-[1-(2,2-difluoroethyl)-1H-pyrazolo[3,4-b]pyrazin-6-yl]-2-[5-(trifluoromethyl)pyridin-3-yl]-2,6-diazaspiro[3.5]nonane]
